“And” between values parts separate entries of the source, which are not always exact repeats. Equal values may be shown once.
Molecular target: T1, human TAS2R14 (Homo sapiens, UniProt Q9NYV8)
T1 construct: expressed in transfected cells; host or cells: HEK293T-Gα16gust44
T1 sequence (Q9NYV8 1-317): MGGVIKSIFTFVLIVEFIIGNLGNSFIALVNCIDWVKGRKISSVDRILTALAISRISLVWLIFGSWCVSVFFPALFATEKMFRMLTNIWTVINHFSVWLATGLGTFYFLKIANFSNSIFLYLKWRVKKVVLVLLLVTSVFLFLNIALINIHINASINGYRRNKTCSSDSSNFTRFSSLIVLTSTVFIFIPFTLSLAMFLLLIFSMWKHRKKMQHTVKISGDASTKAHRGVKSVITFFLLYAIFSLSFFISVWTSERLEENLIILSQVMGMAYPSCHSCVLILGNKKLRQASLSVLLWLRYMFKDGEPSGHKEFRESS
Experiment: Calcium imaging assay (FLIPR), HEK293T-Gα16gust44 cells transfected with human TAS2R14
Type: cell-based
Details: for RLU: TAS2R14 trace
Procedure: This set of bile acids was chosen because of their commercial availability in high purities, their diversity within the class of bile acids and their previous detection and quantitation in human blood. Stock solutions were prepared in DMSO.
As basal growth medium for the HEK293T-Gα16gust44 cell line[17],[59] served Dulbecco’s modified eagle medium (DMEM) (Thermo Fisher Scientific, Darmstadt, Germany) supplemented with 10 % fetal bovine serum (Sigma-Aldrich, Steinheim, Germany), 2 mM L-glutamine (Sigma-Aldrich, Steinheim, Germany), 100 units/ml penicillin (Sigma Aldrich, Steinheim, Germany) and 100 µg/ml streptomycin (Sigma Aldrich, Steinheim, Germany). Growth conditions were 37 °C, 5 % CO2 and saturated air-humidity[60].
HEK293T-Gα16gust44 cells were seeded on poly-D-lysine (10 µg/ml) coated 96-well plates to reach a confluence of 40-60 % the next day. For transient transfection 150 ng of plasmid DNA containing the receptor of interest and 0.3 µl lipofectamine 2000 (Thermo Fisher Scientific, Darmstadt, Germany) per well were used and transfection took place according to the manual of lipofectamine 2000. […] The empty vector DNA (mock) was transfected as negative control[14],[41].
Cells were loaded using the calcium-sensitive fluorescent dye Fluo-4-AM (Abcam, Cambridge, Great Britain) in the presence of 2.5 mM probenecid (Sigma-Aldrich, Steinheim, Germany) the day after transfection[13],[41]. 1 h after loading, cells were washed with C1 buffer using a BioTek Cell Washer, incubated in the dark for half an hour and washed again. For automated agonist application and measurement of fluorescence changes, a FLIPR^TETRA device (Molecular Devices, San José, United States) was used. Viability of cells was tested by application of 100 nM Somatostatin 14 (Bachem, Bubendorf, Switzerland)[42].
Measured data were negative control corrected by subtracting the signal of the mock-transfected cells and exported to Microsoft Excel using the FLIPR software ScreenWorks 4.2. In Microsoft Excel software, standardization of maximum fluorescence intensities to the basal fluorescence and normalization to the buffer-only control was done to calculate the relative fluorescence changes (ΔF/F).
Initial screening experiments performed in duplicate wells were confirmed by at least one replication and representative traces were selected for display. All dose-response relationships were determined by three independent experiments (biological replicates) performed in duplicates (technical replicates). Threshold concentrations, defined as lowest substance concentrations leading to statistically significant elevated fluorescence changes in receptor-transfected cells compared with empty vector-transfected cells, were determined using SigmaPlot with Student’s t-test to evaluate statistical significance (p < 0.01).

C[C@H](CCC(=O)NCC(=O)O)[C@H]1CC[C@H]2[C@@H]3[C@H](O)C[C@@H]4C[C@H](O)CC[C@]4(C)[C@H]3C[C@H](O)[C@]12C [Glycocholic Acid, glycocholic acid]
Efficacy = maximal amplitude (ΔF/F) (TAS2R14, bile acids, mean): 0.2451
Efficacy (maximal amplitude ΔF/F), individual data points (TAS2R14, bile acids, single replicates, listed as GCA): 0.2248 and 0.2913 and 0.2191
Δ F/F (TAS2R14, conc. 0,01 mM): 0.002092
Δ F/F (TAS2R14, conc. 0,1 mM): 0.02639
Δ F/F (TAS2R14, conc. 0,03 mM): 0.01392
Δ F/F (TAS2R14, conc. 0,3 mM): 0.06546
Δ F/F (TAS2R14, conc. 0,001 mM): 0.007446
Δ F/F (TAS2R14, conc. 1 mM): 0.2451
Δ F/F (TAS2R14, conc. 0,003 mM): 0.001619
RLU (Time (s) 0): 0 RLU
RLU (Time (s) 2 (Taurocholic Acid 2.016)): -6.072 RLU
RLU (Time (s) 4 (Taurocholic Acid 4.016)): -9.1 RLU
RLU (Time (s) 6 (Taurocholic Acid 6.016)): -27.0469 RLU
RLU (Time (s) 8 (Taurocholic Acid 8.016)): -30.0405 RLU
RLU (Time (s) 12 (Taurocholic Acid 12.016)): -37.9898 RLU
RLU (Time (s) 14 (Taurocholic Acid 14.016)): -36.9901 RLU
RLU (Time (s) 16 (Taurocholic Acid 16.016)): -51.9041 RLU
RLU (Time (s) 18 (Taurocholic Acid 18.016)): -34 RLU
RLU (Time (s) 18.797 (Chenodeoxycholic Acid 18.765)): -73.9735 RLU
RLU (Time (s) 20.797 (Chenodeoxycholic Acid 20.781)): -100.333 RLU
RLU (Time (s) 22.797 (Chenodeoxycholic Acid 22.781)): -58.0996 RLU
RLU (Time (s) 24.797 (Chenodeoxycholic Acid 24.781)): -11.7946 RLU
RLU (Time (s) 26.797 (Chenodeoxycholic Acid 26.781)): -4.829 RLU
RLU (Time (s) 28.797 (Chenodeoxycholic Acid 28.781)): -12.95 RLU
RLU (Time (s) 30.797 (Chenodeoxycholic Acid 30.781)): 25.2324 RLU
RLU (Time (s) 32.797 (Chenodeoxycholic Acid 32.781)): 58.2752 RLU
RLU (Time (s) 34.797 (Chenodeoxycholic Acid 34.781)): 56.7501 RLU
RLU (Time (s) 36.797 (Chenodeoxycholic Acid 36.781)): 94.7938 RLU
RLU (Time (s) 38.797 (Chenodeoxycholic Acid 38.781)): 109.443 RLU
RLU (Time (s) 40.797 (Chenodeoxycholic Acid 40.781)): 134.729 RLU
RLU (Time (s) 42.797 (Chenodeoxycholic Acid 42.781)): 165.138 RLU
RLU (Time (s) 44.797 (Chenodeoxycholic Acid 44.781)): 223.768 RLU
RLU (Time (s) 46.797 (Chenodeoxycholic Acid 46.781)): 253.169 RLU
RLU (Time (s) 48.797 (Chenodeoxycholic Acid 48.781)): 284.606 RLU
RLU (Time (s) 50.797 (Chenodeoxycholic Acid 50.781)): 322.537 RLU
RLU (Time (s) 52.797 (Chenodeoxycholic Acid 52.781)): 365.455 RLU
RLU (Time (s) 54.797 (Chenodeoxycholic Acid 54.781)): 404.11 RLU
RLU (Time (s) 56.797 (Chenodeoxycholic Acid 56.781)): 424.679 RLU
RLU (Time (s) 58.797 (Chenodeoxycholic Acid 58.781)): 448.405 RLU
RLU (Time (s) 60.797 (Chenodeoxycholic Acid 60.781)): 513.015 RLU
RLU (Time (s) 62.797 (Chenodeoxycholic Acid 62.781)): 520.328 RLU
RLU (Time (s) 64.797 (Chenodeoxycholic Acid 64.781)): 518.587 RLU
RLU (Time (s) 66.797 (Chenodeoxycholic Acid 66.781)): 566.626 RLU
RLU (Time (s) 68.797 (Chenodeoxycholic Acid 68.781)): 571.358 RLU
RLU (Time (s) 70.797 (Chenodeoxycholic Acid 70.781)): 583.853 RLU
RLU (Time (s) 72.797 (Chenodeoxycholic Acid 72.781)): 622.789 RLU
RLU (Time (s) 74.797 (Chenodeoxycholic Acid 74.781)): 701.49 RLU
RLU (Time (s) 76.797 (Chenodeoxycholic Acid 76.781)): 688.581 RLU
RLU (Time (s) 78.797 (Chenodeoxycholic Acid 78.781)): 706.104 RLU
RLU (Time (s) 80.797 (Chenodeoxycholic Acid 80.781)): 737.493 RLU
RLU (Time (s) 82.797 (Chenodeoxycholic Acid 82.781)): 736.745 RLU
RLU (Time (s) 84.797 (Chenodeoxycholic Acid 84.781)): 766.635 RLU
RLU (Time (s) 86.797 (Chenodeoxycholic Acid 86.781)): 784.026 RLU
RLU (Time (s) 88.797 (Chenodeoxycholic Acid 88.781)): 835.93 RLU
RLU (Time (s) 90.797 (Chenodeoxycholic Acid 90.781)): 879.758 RLU
RLU (Time (s) 92.797 (Chenodeoxycholic Acid 92.781)): 905.014 RLU
RLU (Time (s) 94.797 (Chenodeoxycholic Acid 94.781)): 871.313 RLU
RLU (Time (s) 96.797 (Chenodeoxycholic Acid 96.781)): 875.012 RLU
RLU (Time (s) 98.797 (Chenodeoxycholic Acid 98.781)): 900.527 RLU
RLU (Time (s) 100.797 (Chenodeoxycholic Acid 100.781)): 907.622 RLU
RLU (Time (s) 102.797 (Chenodeoxycholic Acid 102.781)): 872.83 RLU
RLU (Time (s) 104.797 (Chenodeoxycholic Acid 104.781)): 919.127 RLU
RLU (Time (s) 106.797 (Chenodeoxycholic Acid 106.781)): 885.988 RLU
RLU (Time (s) 108.797 (Chenodeoxycholic Acid 108.781)): 899.974 RLU
RLU (Time (s) 110.797 (Chenodeoxycholic Acid 110.781)): 929.16 RLU
RLU (Time (s) 112.797 (Chenodeoxycholic Acid 112.781)): 924.683 RLU
RLU (Time (s) 114.797 (Chenodeoxycholic Acid 114.781)): 936.987 RLU
RLU (Time (s) 116.797 (Chenodeoxycholic Acid 116.781)): 927.195 RLU
RLU (Time (s) 118.797 (Chenodeoxycholic Acid 118.781)): 907.689 RLU
RLU (Time (s) 120.797 (Chenodeoxycholic Acid 120.781)): 904.35 RLU
RLU (Time (s) 122.797 (Chenodeoxycholic Acid 122.781)): 945.812 RLU
RLU (Time (s) 124.797 (Chenodeoxycholic Acid 124.781)): 947.759 RLU
RLU (Time (s) 126.797 (Chenodeoxycholic Acid 126.781)): 937.139 RLU
RLU (Time (s) 128.797 (Chenodeoxycholic Acid 128.781)): 931.219 RLU
RLU (Time (s) 130.797 (Chenodeoxycholic Acid 130.781)): 907.598 RLU
RLU (Time (s) 132.797 (Chenodeoxycholic Acid 132.781)): 937.794 RLU
RLU (Time (s) 134.797 (Chenodeoxycholic Acid 134.781)): 944.802 RLU
RLU (Time (s) 136.797 (Chenodeoxycholic Acid 136.781)): 914.908 RLU
RLU (Time (s) 137.562 (Taurocholic Acid 137.563, Chenodeoxycholic Acid 137.546)): 923.636 RLU
RLU (Time (s) 143.578 (Taurocholic Acid 143.563, Chenodeoxycholic Acid 143.546)): 874.438 RLU
RLU (Time (s) 149.578 (Taurocholic Acid 149.563, Chenodeoxycholic Acid 149.546)): 827.247 RLU
RLU (Time (s) 155.578 (Taurocholic Acid 155.563, Chenodeoxycholic Acid 155.546)): 796.558 RLU
RLU (Time (s) 161.578 (Taurocholic Acid 161.563, Chenodeoxycholic Acid 161.546)): 810.447 RLU
RLU (Time (s) 167.578 (Taurocholic Acid 167.563, Chenodeoxycholic Acid 167.546)): 731.625 RLU
RLU (Time (s) 173.578 (Taurocholic Acid 173.563, Chenodeoxycholic Acid 173.546)): 735.471 RLU
RLU (Time (s) 179.578 (Taurocholic Acid 179.563, Chenodeoxycholic Acid 179.546)): 706.541 RLU
RLU (Time (s) 191.578 (Taurocholic Acid 191.563, Chenodeoxycholic Acid 191.546)): 666.973 RLU
RLU (Time (s) 197.578 (Taurocholic Acid 197.563, Chenodeoxycholic Acid 197.546)): 650.688 RLU
RLU (Time (s) 209.578 (Taurocholic Acid 209.563, Chenodeoxycholic Acid 209.546)): 612.527 RLU
RLU (Time (s) 221.578 (Taurocholic Acid 221.563, Chenodeoxycholic Acid 221.546)): 516.97 RLU
RLU (Time (s) 233.578 (Taurocholic Acid 233.563, Chenodeoxycholic Acid 233.546)): 445.674 RLU
RLU (Time (s) 239.578 (Taurocholic Acid 239.563, Chenodeoxycholic Acid 239.546)): 433.467 RLU
RLU (Time (s) 245.578 (Taurocholic Acid 245.563, Chenodeoxycholic Acid 245.546)): 428.616 RLU
RLU (Time (s) 293.578 (Taurocholic Acid 293.563, Chenodeoxycholic Acid 293.546)): 228.532 RLU
RLU (Time (s) 299.578 (Taurocholic Acid 299.563, Chenodeoxycholic Acid 299.546)): 222.955 RLU
RLU (Time (s) 305.578 (Taurocholic Acid 305.563, Chenodeoxycholic Acid 305.546)): 237.423 RLU
RLU (Time (s) 311.578 (Taurocholic Acid 311.563, Chenodeoxycholic Acid 311.546)): 201.505 RLU
RLU (Time (s) 317.578 (Taurocholic Acid 317.563, Chenodeoxycholic Acid 317.546)): 204.947 RLU
RLU (Time (s) 323.578 (Taurocholic Acid 323.563, Chenodeoxycholic Acid 323.546)): 189.257 RLU
RLU (Time (s) 329.578 (Taurocholic Acid 329.563, Chenodeoxycholic Acid 329.546)): 164.774 RLU
RLU (Time (s) 335.578 (Taurocholic Acid 335.563, Chenodeoxycholic Acid 335.546)): 171.566 RLU
RLU (Time (s) 341.578 (Taurocholic Acid 341.563, Chenodeoxycholic Acid 341.546)): 143.607 RLU
RLU (Time (s) 347.578 (Taurocholic Acid 347.563, Chenodeoxycholic Acid 347.546)): 131.554 RLU
RLU (Time (s) 353.578 (Taurocholic Acid 353.563, Chenodeoxycholic Acid 353.546)): 173.027 RLU
RLU (Time (s) 359.578 (Taurocholic Acid 359.563, Chenodeoxycholic Acid 359.546)): 156.135 RLU
Activation threshold concentration TAS2R14 (lowest concentration with significantly increased fluorescence vs empty vector (p < 0.01)): 100 µM

Source: publication PMC10247784, “Physiological activation of human and mouse bitter taste receptors by bile acids” (Communications Biology, 2023)
